According to patent US20130190345A1, “MATRINIC ACID/MATRINE DERIVATIVES AND PREPARATION METHODS AND USES THEREOF” (priority 2010, published 2013):
≈ marks a conversion by molar mass, not a printed value.

Key:
Format in all cases: cell-based
Hsc70 [1] = assay: Detection of Hsc70 gene expression level upon action of compound on 2.2.15 cells (real-time fluorescent quantified PCR); parameters: Hsc70 mRNA / Hsc70 down-regulation rate (%): unit not given here; details: for Hsc70 inhibition rate (down-regulation of Hsc70 expression activity, expressed in relative OMT ratio): 2.2.15 cells, relative to OMT (= 1); for Hsc70 down-regulation rate (%): single value, concentration not given, values coincide with Table 1 relative OMT ratios
Procedure: 2.2.15 cells (purchased from Vertex Pharmaceutical Co., USA) in a number of 1×10^6 were inocubated to 6-well plate, cultured in a culture medium containing 10% fetal calf serum for 24 hr, the original culture medium was discarded, replaced with a culutre medium containing 400 μg/ml OMTR, which was used as control. Compounds were firstly dissolved in MEM to form 20 mg/ml mother liquid, which was diluted with culture medium when used and then applied to cells. The compounds of Examples 1-114 were separately used for treatment for 12, 24, 36 hr, then cells were harvested for extraction of RNA and DNA, then the changes of Hsc70 mRNA and HBV DNA were detected by real-time fluorescent quantified PCR.

HCV = assay: Inhibition effects of compounds on HCV in Huh7.5 cultured cell after HCV infection; details: for EC50 (half effective concentration): virus not given, stands beside HCV inhibition rate
Procedure: 1×10^5/ml Huh7.5 cells (purchased from Vertex Pharmaceutical Co., USA) were inoculated in an amount of 0.1 ml on 96-well culture plate, placed in an incubator with 37° C., 5% CO2 content and saturation humidity, and cultured for 24 h, HCV virus in 45 IU/cell was used to infect Huh7.5, different drug solutions (DM122) formulated with culture medium were added, and cell control and HCV infection control were set. Cultivation was continuously performed in the incubator with 37° C., 5% CO2 content and saturation humidity for 72 h, kit for RNA extraction was used to extract intracellular RNA, one-step qRT-PCR was used to determine intracellular contents of HCV and GAPDH RNA, and the inhibition effects of drug on HCV infection was analyzed. […] In comparison with the virus control group, the inhibition effects on HCV infection upon action of different drugs were analyzed. […] This experiment was repeated for 3 times, * indicated […] in comparison with control, ** indicated p<0.01 in comparison with control.

2.2.15 cells = assay: Drug TC50 by MTT detection; details: Reed-Muench
Procedure: 2.2.15 cells (all cells were purchased from Vertex Pharmaceutical Co., USA) in exponential growth phase were inoculated on 96-well culture plate, 2×10^5 cells/well, added with culture media containing PFA diluted in different concentration rates, 3 wells for each diluted concentration, placed in 37° C. CO2—containing incubator and cultivated for 48 h; the supernatant was discarded, 100 μl of MTT (0.5 mg/ml) in culture medium was added, cultivation was continuously performed at 37° C. for 4 h; each well was added to 100 μl of 50% DMF-20% SDS destaining solution, stood at 37° C. overnight; ELISA was used to measure optical density at wavelength of 570 nm (0D570).
In each experiment, 3 cell control wells and 3 blank controls well were set, the results were used in formula, (cell control OD570-drug-medicated cell OD570)/cell control OD570, to calculate cell death rate (%), and Reed-Muench method was used to calculate half toxic concentration TC50.

Hsc70 [2] = assay: Inhibition effects of compound on Hsc70 in Huh7.5 cultured cell (qRT-PCR, Western blotting); parameters: key to Hsc70 down-regulation rate (%): “—” represents no significant inhibition rate
Procedure: 2×10^5/ml Huh7.5 cells (purchased from Vertex Pharmaceutical Co., USA) were inoculated in an amount of 3 ml on 6-well culture plate, placed in an incubator with 37° C., 5% CO2 content, saturation humidity, and cultured for 24 h, added with different drug solutions (DM122) formulated with culture medium, and cell control was set. Cultivation was continuously performed in the incubator with 37° C., 5% CO2 content, saturation humidity for 24 h, a kit for RNA extraction was used to extract intracellular RNA from the cells, and one-step qRT-PCR was used to determine intracellular contents of Hsc70 and GAPDHRNA. After the cultivation of cells was performed for 48 h, the cells were digested and harvested, then the cells were split with CytoBuster™ Protein Extraction Buffer that contained many kinds of protease inhibitors, total intracellular proteins were extracted, and Western blotting was used to analyze the contents of Hsc70 and GAPDH proteins. In comparison with the cell control, the inhibition effects on Hsc70 upon action of different drugs were analyzed.

Row | Compound | Hsc70 inhibition rate (down-regulation of Hsc70 expression activity, expressed in relative OMT ratio) (Hsc70 [1]) | Hsc70 down-regulation rate (%) (Hsc70 [1]) | EC50 (half effective concentration) (HCV) [µg/mL] | CC50 (concentration to cause poisoning in half cells) (2.2.15 cells) [µg/mL] | Hsc70 down-regulation rate (%) (Hsc70 [2]; 200 ug/ml (upper data)) | Hsc70 down-regulation rate (%) (Hsc70 [2]; 400 ug/ml (lower data)) | HCV inhibition rate (%) (HCV; 200 ug/ml (upper data)) | HCV inhibition rate (%) (HCV; 400 ug/ml (lower data))
1 | O=C(O)CCC[C@@H]1[C@H]2CCCN3CCC[C@@H](CN1Cc1cscn1)[C@@H]23 [DM-146, N-(thiazol-4-yl)methyl matrinic acid] | 0.92 | 0.92 | 63.99 (≈ 176 µM) | >1000 |  |  |  | 
2 | O=C(O)CCCC1C2CCCN3CCCC(CN1Cc1cccc(Cl)c1)C23 (stereo not drawn) [DM-125, N-(3-chlorobenzyl) matrinic acid] | <10 | −67.97 | 34.35 (≈ 87.9 µM) | >1000 |  |  |  | 
3 | O=C(O)CCCC1C2CCCN3CCCC(CN1Cc1ccccc1Cl)C23 (stereo not drawn) [DM-124, N-(2-chlorobenzyl) matrinic acid] | 0.32 | 0.32 | 68.27 (≈ 175 µM) | 504.6 (≈ 1290 µM) |  |  |  | 
4 | O=C(O)CCCC1C2CCCN3CCCC(CN1C(=O)c1cccc([N+](=O)[O-])c1)C23 [Compound L9, (5R)—N-(3-nitrobenzoyl)matrinic acid] |  |  |  |  | 20.1 ± 11.1% | — | 62.5 ± 0.3 | 68.9 ± 3.8
5 | O=C(O)CCC[C@@H]1[C@H]2CCCN3CCC[C@@H](CN1Cc1ccc(Cl)c(Cl)c1)[C@@H]23 [DM-127, N-(3,4-dichlorobenzyl) matrinic acid] | −2.92 | −2.92 | 113.64 (≈ 267 µM) | 427.8 (≈ 1010 µM) |  |  |  | 
6 | COc1ccc(C(=O)N2CC3CCCN4CCCC(C34)C2CCCC(=O)O)cc1 [Compound L11, (5R)—N-(p-methoxybenzoyl)matrinic acid] |  |  |  |  | 31.4 ± 12.2% | — | 46.7 ± 12.7 | 61.6 ± 3.9
7 | Cc1ccc(C(=O)N2C[C@@H]3CCCN4CCC[C@@H]([C@H]34)[C@H]2CCCC(=O)O)cc1 [DM-153, N-(4-methylbenzoyl) matrinic acid] |  |  |  |  | 38.6 ± 15.8% | 32.6 ± 14. % | 47.8 ± 9.4 | 29.2 ± 29.5
8 | O=C(O)CCCC1C2CCCN3CCCC(CN1Cc1ccc(Br)cc1)C23 (stereo not drawn) [DM-128, N-(4-bromobenzyl) matrinic acid] | −5.78 | −5.78 | 51.66 (≈ 119 µM) | 535.1 (≈ 1230 µM) |  |  |  | 
9 | O=C(O)CCC[C@@H]1[C@H]2CCCN3CCC[C@@H](CN1C(=O)c1ccc(C(F)(F)F)cc1)[C@@H]23 [DM-155, N-(4-trifluoromethylbenzoyl) matrinic acid] |  |  | >333.33 | >1000 |  |  |  | 
10 | N-(4-ethenyl benzyl) matrinic acid [DM-136] | 0.76 | 0.76 | 1.80 | 70.49 |  |  |  | 
11 | O=C(O)CCC[C@@H]1[C@H]2CCCN3CCC[C@@H](CN1C(=O)c1cccc([N+](=O)[O-])c1)[C@@H]23 [DM-121, N-(3-nitrobenzoyl) matrinic acid] | 0.23 |  |  |  | — | — |  | 14.9 ± 9.0
